Results taken from ChEMBL document CHEMBL1142563, “Isolation and structure of phakellistatin 14 from the Western Pacific marine sponge Phakellia sp” (2005).
≈ marks a conversion by molar mass, not a printed value. Where a SMILES comes first, the peptide text is derived from it. [ ]: non-standard residue; d: D form. Met(O) = CS(=O)CC[C@H](N)C(=O)O

Test system: P388
Test: Cytotoxicity against mouse P388 cells
Format: functional
Conditions: read-out: ED50 (the source's name)

CC[C@H](C)[C@@H]1NC(=O)[C@H](C)NC(=O)[C@H](CC[S+](C)[O-])NC(=O)[C@H](C)NC(=O)[C@H](CC(=O)OC)NC(=O)[C@H](Cc2ccccc2)NC(=O)[C@@H]2CCCN2C1=O (stereo partly specified) [PHAKELLISTATIN 14] (cyclo(AIPFD(OMe)A[Met(O)]))
EC50: 5 µg/mL (≈ 6.44 µM)
